In patent US5340920A, “Physiologically active porcine peptide (CNP-53)” (Matsuo; Hisayuki, priority 1990, dated 1994):

Columns and labels:
[1] = Diuretic and natriuretic actions of the purified peptide; type: in vivo; conditions: no method described
[2] = test system: anti-CNP-22 antiserum (antibody #171-4); experiment: RIA system using anti-CNP-22 antiserum #171-4 and I125 labelled [Tyr0] CNP-22; type: binding, rabbit; conditions: for cross-reactivity of antibody #171-4: RIA, CNP-22 as standard
Description: Six milligrams of chemically synthesized CNP-22 and 15 mg of bovine thyroglobulin (product of Sigma Co.) were dissolved in 2 ml of 0.1M phosphate buffer (pH 7.4). To the solution, 100 μl of 5% glutaraldehyde was added and the mixture was agitated at 0° C. for 20 min to have CNP-22 bound to the thyroglobulin. Then, the solution was dialyzed five times against water (500 ml) and twice against 500 ml of 50 mM phosphate buffer (pH 7.4) containing 80 mM NaCl, whereby excess salts and reagents were removed from the reaction solution. Subsequently, 50 mM phosphate buffer containing 80 mM NaCl was added to the reaction solution to make a total volume of 12 ml. Thereafter, an equal volume of Freund's complete adjuvant was added to form an emulsion. A rabbit (New Zealand White) was repeatedly immunized with the emulsion at 20-day intervals so as to prepare an anti-CNP-22 antiserum. The thus prepared antiserum was named "#171-4".
In the first step, [Tyr°] CNP-22 [a peptide having a tyrosine residue (Tyr) added to the N-terminus of CNP-22] was chemically synthesized. Then, I^125 was introduced into the N-terminal Tyr residue by the method of Miyata et al. (Miyata, A. et al., Biochem. Biophys. Res. Commun., 129, 248-255, 1985) and the I^125 labelled monoiodo(Tyr°] CNP-22 was separated and isolated by reverse-phase HPLC.
In the next step, an RIA system was constructed by the following method using the thus I125 labelled [Tyr°] CNP-22 and the antibody (#171-4) prepared in Example 1-A.
As a buffer for the RIA system, 50 mM phosphate buffer (pH 7.4) containing 80 mM NaCl, 0.1% Triton X-100, 25 mM EDTA, 0.05% NaN3, 3.1% dextran T-40 and 0.25% BSA (as treated with N-ethylmaleimide) was used. A standard CNP-22 solution or assay sample (100 μl) and the antibody #171-4 prepared in Example 1-A (100 μl of a 60,000-fold dilution) were added to the buffer and the mixture was subjected to reaction at 4° C. for 24 h. […] Thereafter, polyethylene glycol was added and the radioactivity of the resulting precipitate was measured with a gamma-counter (ARC-600 of Aloka Co.).

chick rectum = experiment: Chick rectum relaxant activity (method of Currie et al.); conditions: assay system of Currie et al.; compared with CNP-22
Description: The chick rectum relaxant activity of CNP-53 was measured in accordance with the method of Currie et al. (Currie et al., […]).

rats = conditions: administered to rats; Japanese Patent Application No. 105047/1990; cited from earlier work

CNP-53: novel porcine brain peptide of 53 amino acid residues containing CNP-22 at the C-terminus, intramolecular S-S bond Cys37-Cys53 (DLRVDTKSRAAWARLLHEHPNARKYKGGNKKGLSKGCFGLKLDRIGSMSGLGC)
diuretic and natriuretic actions [1]: diuretic and natriuretic actions
immunoreactivity per molecule with the anti-CNP-22 antiserum ([2]; RIA of Example 1, assuming 53 residues containing CNP-22 at the C-terminus, compared with CNP-22): comparable to that of CNP-22
chick rectum relaxant activity (chick rectum): comparable chick rectum relaxant activity to CNP-22

CNP-22: C-type natriuretic peptide of 22 amino acid residues from porcine brain, single S-S bond, no C-terminal tail (GLSKGCFGLKLDRIGSMSGLGC)
natriuretic and hypotensive actions (rats): natriuretic and hypotensive actions

α-ANP: α-type atrial natriuretic peptide, single-stranded peptide of 28 amino acids with a single S-S bond [reference compound]
cross-reactivity of antibody #171-4 [2]: 0.015%

B1: pBNP-26: porcine brain natriuretic peptide of 26 amino acid residues having a single S-S bond (peptide)
peptide: HPLGGAGLASELPGIQELLDRLRDRVSELQAERTDLEPLRQDRGLTEAWEAREAAPTGVLGPRSSIFQVLRGIRSPKTMRDSGCFGRRLDRIGSLSGLGCNVLRRY
cross-reactivity of antibody #171-4 [2]: 0.46%
